Target: T1, S-adenosyl-L-homocysteine hydrolase from T. maritima (TmSAHase; iTmSAHase as purified, htTmSAHase after heat treatment) (Thermotoga maritima, UniProt O51933)
T1 sequence (O51933 1-404): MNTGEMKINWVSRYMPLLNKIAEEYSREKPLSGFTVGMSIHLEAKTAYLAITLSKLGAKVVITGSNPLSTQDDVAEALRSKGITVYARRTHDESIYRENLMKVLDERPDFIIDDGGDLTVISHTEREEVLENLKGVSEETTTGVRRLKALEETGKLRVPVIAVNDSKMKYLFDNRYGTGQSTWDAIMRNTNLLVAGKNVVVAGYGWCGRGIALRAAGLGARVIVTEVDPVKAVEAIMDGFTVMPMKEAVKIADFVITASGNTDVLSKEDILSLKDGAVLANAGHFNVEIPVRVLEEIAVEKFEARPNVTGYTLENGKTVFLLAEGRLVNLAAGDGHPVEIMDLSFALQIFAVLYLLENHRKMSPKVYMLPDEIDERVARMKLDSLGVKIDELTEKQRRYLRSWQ
Assay: isothermal titration calorimetry
Format: binding

Compound | Kd (htTmSAHase/AMP) [µM] | Kd (iTmSAHase/AMP) [µM] | Kd (htTmSAHase/Ado) [µM] | Kd (iTmSAHase/Ado) [µM]
Nc1ncnc2c1ncn2[C@@H]1O[C@H](COP(=O)(O)O)[C@@H](O)[C@H]1O [AMP, adenosine 5′-monophosphate] | 25 ± 2 | 30 ± 3 |  | 
Nc1ncnc2c1ncn2[C@@H]1O[C@H](CO)[C@@H](O)[C@H]1O [Ado, adenosine] |  |  | 8.8 ± 1.2 | 19 ± 1.5

Reference: publication PMC7888557 (International journal of biological macromolecules, 2017)
